According to patent US10624905B2, “Corticosteroids for the treatment of joint pain” (Flexion Therapeutics, Inc., priority 2013, dated 2020):
≈ marks a conversion by molar mass, not a printed value. Where “and” joins values, the source holds several entries; their conditions need not be identical. Identical values can stand only once. Like-named read-outs stand apart in the source and are kept apart here.

How the values were obtained:
[1] = tested on: endogenous cortisol production; experiment: Steady-state doses and plasma concentrations for target suppression of endogenous cortisol production; set-up: species or system human; details: steady-state HPA axis suppression
Description: In this regard, it has been determined that standard doses of familiar corticosteroids, when examined from the viewpoint of steady-state HPA axis suppression (i.e., after desensitization has occurred), provide clinically useful benchmarks. For example, while oral prednisolone given at 20 mg QD produces a 73% cortisol suppression, even 5 mg QD (considered a “low dose”) is associated with a 40% suppression of endogenous cortisol production. […]
As a result of these clinical findings, the dose range to achieve clinically useful analgesia, with minimal or controlled modulation of the HPA axis, at steady state concentrations of various corticosteroids has been determined (Table 2). […]
In addition, with these continuous daily doses of intra-articular corticosteroids, it is possible to determine the related systemic plasma level concentrations (Table 3) that will produce the target cortisol inhibition and not beyond, this while retaining clinically important anti-inflammatory and analgesic activity within the joint. […] The levels calculated in Table 3 were purely hypothetical calculations based on human data with immediate release-level doses from the literature. […] A given level of plasma concentration may actually provide less inhibition that would have been predicted or calculated using the human IR levels from the literature. […]

[2] = cited from earlier work
[3] = tested on: rat model of osteoarthritis of the knee (PGPS); experiment: Rat PGPS model of osteoarthritis of the knee: histopathology of the knees; type: in vivo; details: inflammatory milieu
Description: Efficacy of single intra-articular (IA) doses of FX006 (TCA in 75:25 PLGA formulation microparticles) and TCA IR (immediate release) was evaluated in a rat model of osteoarthritis of the knee via sensitization and challenge by peptidoglycan polysaccharide (PGPS). The model involves priming the animals with an intra-articular injection of PGPS in the right knee. The following day, any animals with no knee discomfort were eliminated from the test article groups and placed into the baseline group. Two weeks later, knee inflammation was reactivated by a tail vein injection of PGPS, 2.5 hr following IA dosing with FX006 or TCA IR at the doses selected (n=10/group). Differences in weight-bearing and gait (as a measure of joint pain experienced by the animals), histopathology, plasma PK etc. were evaluated.

[4] = tested on: HPA axis (corticosterone levels); experiment: Inhibition of the HPA axis (corticosterone levels) in rats, PK-PD analysis; type: in vivo; details: rat, PK-PD inhibitory model
[5] = TCA in rat plasma, i.v. 50 mg/kg bolus + 23 mg/kg/h infusion, cited from earlier work
HPA axis = details: 20 mg intra-articular injection; day 3; transient; cited from earlier work

Compound: C[C@]12C=CC(=O)C=C1CC[C@@H]1[C@@H]2[C@@H](O)C[C@@]2(C)[C@H]1CC[C@]2(O)C(=O)CO [prednisolone, 11β,17,21-trihydroxypregna-1,4-diene-3,20-dione]
- suppression of endogenous cortisol production ([1]; oral 5 mg QD): 40%
- cortisol suppression ([1]; oral 20 mg QD): 73%

Compound: CC1(C)O[C@@H]2C[C@H]3[C@@H]4CCC5=CC(=O)C=C[C@]5(C)[C@@]4(F)[C@@H](O)C[C@]3(C)[C@]2(C(=O)CO)O1 [triamcinolone acetonide, 9α-Fluoro-11β,16α,17α,21-tetrahydroxy-1,4-pregnadiene-3,20-dione 16,17-acetonide]
- contribution of the immediate release component to the plasma concentration ([2]; 40 mg immediate release, intra-articular, by day 12): less than 0.1 ng/ml
- peak plasma concentration ([2]; 40 mg immediate release, intra-articular, day 1): approximately 10 ng/ml
- effect on cartilage [3]: no deleterious effect on cartilage
- systemic TCA level at which Emax of corticosterone inhibition was achieved [4]: 50 to 80 ng/mL
- IC50 ([4]; read-out: IC50 of corticosterone inhibition versus systemic TCA levels): ~1 ng/mL (≈ 2.3 nM)

Compound: Triamcinolone Acetonide Phosphate
- CL ([5]; Mean ± SD): 15.6 ± 3.13 mL/min/kg
- T1/2β ([5]; Mean ± SD): 2.71 ± 1.09 h
- Vc ([5]; Mean ± SD): 0.944 ± 0.314 L/kg
- fu ([5]; Mean ± SD): 0.093 ± 0.015
- k21 ([5]; Mean ± SD): 0.937 ± 0.261 h^1
- CL ([5]; individual rats 1-3): 19.2 mL/min/kg and 13.2 mL/min/kg and 14.5 mL/min/kg
- T1/2β ([5]; individual rats 1-3): 1.55 h and 3.71 h and 2.87 h
- Vc ([5]; individual rats 1-3): 0.684 L/kg and 0.856 L/kg and 1.29 L/kg
- fu ([5]; individual rats 1-3): 0.084 and 0.110 and 0.085
- k12 ([5]; individual rats 1-3): 1.64 h^1 and 1.79 h^1 and 1.59 h^1
- k21 ([5]; individual rats 1-3): 1.04 h^1 and 0.640 h^1 and 1.13 h^1

Compound: CC(C)(C)CC(=O)OCC(=O)[C@@]12OC(C)(C)O[C@@H]1C[C@H]1[C@@H]3CCC4=CC(=O)C=C[C@]4(C)[C@@]3(F)[C@@H](O)C[C@@]12C [triamcinolone hexacetonide]
- HPA-axis suppression (HPA axis): 75%
- plasma levels ([2]; 20 mg intra-articular injection, day 3): 3 to 4 ng/mL
